Literature values in patent publication US20250129429A1, “GENE FUSIONS IN SARCOMA” (Foundation Medicine, Inc., priority 2021, published 2025).

What was measured:
[1] = biological target: TrkA (Homo sapiens, UniProt P04629)
[2] = biological target: TrkB (Homo sapiens, UniProt Q16620)
[3] = biological target: NGF dimer (Homo sapiens, UniProt P01138); conditions: binds the NGF dimer
[4] = system: various solid tumors harboring NTRK fusions
[5] = system: various solid tumors with NTRK fusions; conditions: monotherapy; adult and pediatric patients, with and without CNS metastases
[6] = system: NTRK fusion-positive AML cell lines
[7] = system: NTRK1 fusion-positive tumors; conditions: patients with NTRK1 fusion-positive tumors

TrkA, sequence (P04629 33-796): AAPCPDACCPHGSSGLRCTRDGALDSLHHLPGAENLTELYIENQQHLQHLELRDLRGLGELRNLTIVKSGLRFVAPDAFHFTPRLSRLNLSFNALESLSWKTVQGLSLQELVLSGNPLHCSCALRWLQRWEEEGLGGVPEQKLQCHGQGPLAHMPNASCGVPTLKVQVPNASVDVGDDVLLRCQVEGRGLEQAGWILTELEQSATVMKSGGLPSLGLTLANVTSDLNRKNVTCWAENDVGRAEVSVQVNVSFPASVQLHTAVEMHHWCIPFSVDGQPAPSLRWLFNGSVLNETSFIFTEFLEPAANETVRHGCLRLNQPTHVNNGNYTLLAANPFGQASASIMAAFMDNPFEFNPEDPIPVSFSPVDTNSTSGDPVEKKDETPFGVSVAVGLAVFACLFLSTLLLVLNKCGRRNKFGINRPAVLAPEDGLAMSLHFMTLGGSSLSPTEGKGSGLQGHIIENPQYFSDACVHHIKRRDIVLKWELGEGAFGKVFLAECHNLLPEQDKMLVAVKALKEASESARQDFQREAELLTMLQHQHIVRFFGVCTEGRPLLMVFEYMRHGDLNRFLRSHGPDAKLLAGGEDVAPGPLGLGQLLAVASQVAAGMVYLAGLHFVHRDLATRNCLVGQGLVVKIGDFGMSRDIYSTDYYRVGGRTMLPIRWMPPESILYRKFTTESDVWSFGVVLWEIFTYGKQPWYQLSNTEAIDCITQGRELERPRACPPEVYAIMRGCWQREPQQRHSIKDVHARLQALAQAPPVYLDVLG
NGF dimer, sequence (P01138 122-241): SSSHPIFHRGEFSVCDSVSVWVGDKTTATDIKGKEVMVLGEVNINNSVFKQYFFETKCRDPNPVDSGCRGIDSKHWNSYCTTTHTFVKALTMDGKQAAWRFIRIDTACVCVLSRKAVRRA
TrkB, sequence (Q16620 32-822, species assumed): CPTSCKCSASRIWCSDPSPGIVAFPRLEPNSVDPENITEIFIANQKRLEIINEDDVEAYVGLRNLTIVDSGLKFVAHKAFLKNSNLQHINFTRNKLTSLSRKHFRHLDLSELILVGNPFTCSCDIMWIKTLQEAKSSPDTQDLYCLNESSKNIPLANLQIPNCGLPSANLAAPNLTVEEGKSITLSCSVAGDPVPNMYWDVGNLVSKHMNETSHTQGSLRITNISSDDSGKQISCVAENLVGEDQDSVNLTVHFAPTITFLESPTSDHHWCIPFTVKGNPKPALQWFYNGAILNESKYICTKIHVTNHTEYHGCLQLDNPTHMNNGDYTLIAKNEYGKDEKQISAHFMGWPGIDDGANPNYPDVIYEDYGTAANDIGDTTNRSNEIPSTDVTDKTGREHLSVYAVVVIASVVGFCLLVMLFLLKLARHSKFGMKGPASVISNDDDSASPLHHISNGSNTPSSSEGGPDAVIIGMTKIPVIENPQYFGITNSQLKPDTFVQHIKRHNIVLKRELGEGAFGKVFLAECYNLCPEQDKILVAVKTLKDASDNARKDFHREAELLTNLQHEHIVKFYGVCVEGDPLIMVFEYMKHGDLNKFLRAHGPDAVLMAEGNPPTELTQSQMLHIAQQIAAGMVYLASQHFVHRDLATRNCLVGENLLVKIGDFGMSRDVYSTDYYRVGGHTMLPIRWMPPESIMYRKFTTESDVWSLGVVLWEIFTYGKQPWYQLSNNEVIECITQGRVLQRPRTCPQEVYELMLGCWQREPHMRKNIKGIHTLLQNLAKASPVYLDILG

NC(=O)Nc1snc(S[C@@H]2CCCCc3ccccc32)c1C(N)=O [isothiazole 5n]
IC50 [1]: < 1 nM

CC(C)Oc1cc(Nc2nc(N[C@@H](C)c3ccc(F)cn3)ncc2Cl)n[nH]1 [AZ-23, 5-chloro-N-[(1S)-1-(5-fluoropyridin-2-yl)ethyl]-N′-(5-propan-2-yloxy-1H-pyrazol-3-yl)pyrimidine-2,4-diamine]
IC50 [2]: 8 nM

Cc1cc2nc3c(=O)[nH]c(=O)nc-3n(C)c2cc1C=O [Ro 08-2750]
Kd [3]: ~1000 nM

O=C(Nc1cnn2ccc(N3CCC[C@@H]3c3cc(F)ccc3F)nc12)N1CC[C@H](O)C1 [larotrectinib]
CR ([4]; adult and pediatric patients with solid tumors harboring NTRK fusions): 17 % of patients | ORR ([4]; adult and pediatric patients with various solid tumors harboring NTRK fusions (88/109)): 81% | responses ongoing ([4]; at 12 months of treatment): 75-81 % of patients | intracranial efficacy ([4]; individuals with NTRK fusion-positive gliomas or brain metastases): has been demonstrated

CN1CCN(c2ccc(C(=O)Nc3n[nH]c4ccc(Cc5cc(F)cc(F)c5)cc34)c(NC3CCOCC3)c2)CC1 [entrectinib, N-[5-(3,5-Difluorobenzyl)-1H-indazol-3-yl]-4-(4-methyl-1-piperazinyl)-2-(tetrahydro-2H-pyran-4-ylamino)benzamide]
clinical benefit [5]: Clinical benefit with entrectinib monotherapy has been achieved | preclinical sensitivity [6]: preclinical sensitivity has been observed

C[C@@H](Oc1cc(-c2cnn(C3CCNCC3)c2)cnc1N)c1c(Cl)ccc(F)c1Cl [crizotinib]
clinical responses [7]: Durable clinical responses

c1ccc2c(c1)[nH]c1c3cccnc3ccc21 [pyridocarbazole]
IC50 [1]: 6 nM
